# Results from publication PMC9394284, “Discovery of Novel Dual Adenosine A2A and A1 Receptor Antagonists with 1H-Pyrazolo[3,4-d]pyrimidin-6-amine Core Scaffold as Anti-Parkinson’s Disease Agents” (Pharmaceuticals, 2022).
# Read-outs that look alike come from different tables or passages of the source.
# Experiments:
# [1] = pharmacokinetics and brain/plasma ratio in mouse brain; assay type: in vivo, Crl:CD-1 mice; conditions: male; for AUC(0-t) / Cmax / Tmax / half-life: mouse brain
# Description: Male Crl:CD-1 mice of 9~10 weeks of age were purchased from Charles River Laboratories, USA and maintained at standard food and water ad libitum in temperature-controlled room with 12 h on-off light cycle before the experiment. All procedures described were reviewed and approved by the Institutional Animal Care and Use Committee (IACUC) at Frontage Laboratories Inc. For PO dosing, mice were given 11o dissolved in DMSO: PEG400 (1:3, v:v) via gavage. For IV dosing, 11o solubilized in DMSO: PEG400: saline (1:3:6, v:v) were injected into tail veins at dose volume of 1 mL/kg. For IN dosing, 11o solubilized in DMSO and 25 μL of the appropriate dosing solution was placed near the nares to allow animal to inhale the dose. Three mice were sampled from each group for each blood and brain collection time point. Time points are 0.5, 1, 2, 4, 8, 24 h for PO and IN dosing and 0.083, 1, 2, 4, 8 and 24 h for IV dosing. Mice were euthanized by terminal retro-orbital blood collection under isoflurane anesthesia, followed by opening of the thoracic cavity per facility SOPs. A target volume of 1 mL was collected into tubes containing K3EDTA anti-coagulant, inverted several times and held on wet ice until centrifuged under refrigeration (set at 5 °C for 10 min at 2000× g). Resulting plasma were stored in a freezer set to maintain −70 °C until analyzed for 11o concentration. Brain was removed from each animal and weighed following termination, snap frozen and stored until later use. Plasma and brain PK analysis was conducted using WinNolin Version 6.2.1 (Pharsight, Mountain View, CA, USA), operating as a validated software system. Noncompartmental analysis was conducted using the extravascular administration model for oral dosing and the IV bolus model for IV dosing. The peak plasma and brain concentration, time to achieve peak plasma concentration, half-life, and area under the plasma concentration-time curve (Cmax, Tmax, T1/2 and AUC) were calculated from mean plasma concentrations for each sampling time/dose group for 11o. Nominal blood collection times were used for calculation of PK parameters. Dose proportionality was assessed, and bioavailability was calculated for PO dosing.
# [2] = metabolic stability in cryopreserved human hepatocytes
# Description: (§1) Metabolic stability of 11o was determined in cryopreserved hepatocytes from mice, rats, dogs, monkeys and human according to the SOPs of Frontage Laboratories Inc. Briefly, cryopreserved hepatocytes for pre-clinical animals and for human (BioIVT, Westbury, NY, USA) were thawed in a 37 °C water bath with gentle shaking until ice had almost melted. The suspensions were immediately transferred to a centrifuge tube (50 mL) containing pre-warmed thawing media at 37 °C with gentle handshaking to prevent the cells from settling. Cell suspensions were centrifuged at 50× g and 4 °C for 5 min. The supernatant was discarded and the pellets were resuspended in prewarmed incubation media (5 mL) at 37 °C. The percentage of viable cells in the suspension was determined by Trypan blue staining method to ensure viability of ≥70 %. […] The samples were centrifuged and aliquots of the supernatant were analyzed for parent compounds by LC/MS/MS using suitable multiple reaction monitoring (MRM) transitions. […] The disappearance of 11o and midazolam was monitored by LC/MS/MS (MRM) analysis of the hepatocyte extracts at each time point. The peak area ratio of the analyte to internal standard was obtained for each sample and the rate of disappearance of 11o was assessed by comparing the peak area ratios at various time points to the peak area ratio obtained at t = 0. The t1/2 is obtained (using the linear portion of semi-log plot of the area ratio vs. time) and the CLint values determined using well-stirred model.
# [3] = metabolic stability in cryopreserved dog hepatocytes; conditions: dog hepatocytes; 1 μM 11o; little/no compound depletion
# Description: as §1
# [4] = Crl:CD-1, inhaled or intranasal, 1 mg/kg IN
# [5] = Crl:CD-1, inhaled or intranasal, 3 mg/kg IN
# [6] = Crl:CD-1, inhaled or intranasal, 10 mg/kg IN
# [7] = human, cryopreserved hepatocytes in suspension
structure (smiles),measurement,setting,value
"Cc1cc(Cn2ncc3c(-c4cccc(C#N)c4F)nc(N)nc32)ccc1N [11o, 3-(6-Amino-1-(4-amino-3-methylbenzyl)-1H-pyrazolo[3,4-d]pyrimidin-4-yl)-2-fluorobenzonitrile]",Kp,"[1]; Crl:CD-1, brain/plasma, other: intranasal (IN), placed near the nares, mouse, IN 1, 3 and 10 mg/kg, read-out: B/P ratio, IN dosing groups",0.0698 to 0.183
same,Kp,"[1]; Crl:CD-1, brain/plasma, mouse, PO 1, 3 and 10 mg/kg, read-out: B/P ratio, PO dosing groups",0.0242 to 0.167
same,AUC(0-t),[1]; [4],5.23 ng·h/mL
same,Cmax,[1]; [4],9.63 ng/mL
same,Tmax,[1]; [4],0.5 h
same,AUC(0-t),[1]; [5],14.2 ng·h/mL
same,Cmax,[1]; [5],15.9 ng/mL
same,Tmax,[1]; [5],0.5 h
same,AUC(0-t),[1]; [6],81.3 ng·h/mL
same,Cmax,[1]; [6],38.2 ng/mL
same,Tmax,[1]; [6],0.5 h
same,half-life,[1]; [6],3.74 h
same,Kp,"[1]; Crl:CD-1, mouse, other: IN (intranasal, placed near the nares to inhale), 10 mg/kg IN, Brain AUClast/Plasma AUClast, read-out: B/P Ratio",0.183
same,Kp,"[1]; Crl:CD-1, mouse, other: IN dosing, solution placed near the nares to inhale, 1 mg/kg IN, Brain AUClast/Plasma AUClast, read-out: B/P Ratio",0.0698
same,Kp,"[1]; Crl:CD-1, mouse, other: IN dosing, solution placed near the nares to inhale, 3 mg/kg IN, Brain AUClast/Plasma AUClast, read-out: B/P Ratio",0.0776
same,Kp,"[1]; Crl:CD-1, mouse, 1 mg/kg IV, Brain AUClast/Plasma AUClast, read-out: B/P Ratio",0.741
same,Kp,"[1]; Crl:CD-1, mouse, 1 mg/kg PO, Brain AUClast/Plasma AUClast, read-out: B/P Ratio",0.0242
same,Kp,"[1]; Crl:CD-1, mouse, 3 mg/kg PO, Brain AUClast/Plasma AUClast, read-out: B/P Ratio",0.0977
same,Kp,"[1]; Crl:CD-1, mouse, 10 mg/kg PO, Brain AUClast/Plasma AUClast, read-out: B/P Ratio",0.167
same,AUC(0-t),"[1]; Crl:CD-1, 1 mg/kg IV",246 ng·h/mL
same,Cmax,"[1]; Crl:CD-1, 1 mg/kg IV",410 ng/mL
same,Tmax,"[1]; Crl:CD-1, 1 mg/kg IV",0.083 h
same,AUC(0-t),"[1]; Crl:CD-1, 1 mg/kg PO",4.26 ng·h/mL
same,Cmax,"[1]; Crl:CD-1, 1 mg/kg PO",5.58 ng/mL
same,Tmax,"[1]; Crl:CD-1, 1 mg/kg PO",2 h
same,AUC(0-t),"[1]; Crl:CD-1, 3 mg/kg PO",56.4 ng·h/mL
same,Cmax,"[1]; Crl:CD-1, 3 mg/kg PO",12.8 ng/mL
same,Tmax,"[1]; Crl:CD-1, 3 mg/kg PO",0.5 h
same,half-life,"[1]; Crl:CD-1, 3 mg/kg PO",3.23 h
same,AUC(0-t),"[1]; Crl:CD-1, 10 mg/kg PO",375 ng·h/mL
same,Cmax,"[1]; Crl:CD-1, 10 mg/kg PO",48.1 ng/mL
same,Tmax,"[1]; Crl:CD-1, 10 mg/kg PO",2 h
same,half-life,"[1]; Crl:CD-1, 10 mg/kg PO",7.71 h
same,"Extrapolated Clearance, CL","[2]; human hepatocytes, 1 μM 11o",9.58 mL/min/kg
same,Intrinsic Clearance,"[2]; human hepatocytes, 1 μM 11o",0.00377 mL/min/10^6 Cells
same,half-life at 1 μM,[2]; [7],3.07 h
same,hepatocyte CLint at 1 μM,[2]; [7],3.8 µL/min/1e6 cells
same,CLint scaled at 1 μM,"[2]; human, cryopreserved hepatocytes in suspension, Extrapolated Clearance, CL, human hepatocytes, 1 μM 11o",9.6 mL/min/kg
same,CLint in human hepatocytes relative to midazolam,"[2]; human, hepatocytes",less than 40 % of midazolam
same,stability in dog hepatocytes (in words),[3],stable in dog hepatocytes
